Key:
[1] = target: T1, ROCK2 (Homo sapiens, UniProt O75116); experiment: ADP-Glo kinase assay with […] ATP; also KINOMEscan competition at […] ([…] vs CTRL); assay type: biochemical
T1 construct: GST-tagged 1–552 human ROCK2

[2] = target: T2, ROCK1 (Homo sapiens, UniProt Q13464); experiment: ADP-Glo kinase assay with […] ATP; assay type: biochemical
T2 construct: GST-tagged 1–535 human ROCK1

[3] = target: T2, ROCK1; experiment: ADP-Glo kinase assay with […] ATP; also KINOMEscan competition at […] ([…] CTRL); assay type: biochemical
[4] = target: T1, ROCK2; experiment: as above; assay type: biochemical
[5] = target: VRK2 (Homo sapiens, UniProt Q86Y07); experiment: KINOMEscan competition binding, single concentration […] ([…] of control); conditions: read-out: % CTRL at 100 nM
Sequence of VRK2 (Q86Y07 whole entry): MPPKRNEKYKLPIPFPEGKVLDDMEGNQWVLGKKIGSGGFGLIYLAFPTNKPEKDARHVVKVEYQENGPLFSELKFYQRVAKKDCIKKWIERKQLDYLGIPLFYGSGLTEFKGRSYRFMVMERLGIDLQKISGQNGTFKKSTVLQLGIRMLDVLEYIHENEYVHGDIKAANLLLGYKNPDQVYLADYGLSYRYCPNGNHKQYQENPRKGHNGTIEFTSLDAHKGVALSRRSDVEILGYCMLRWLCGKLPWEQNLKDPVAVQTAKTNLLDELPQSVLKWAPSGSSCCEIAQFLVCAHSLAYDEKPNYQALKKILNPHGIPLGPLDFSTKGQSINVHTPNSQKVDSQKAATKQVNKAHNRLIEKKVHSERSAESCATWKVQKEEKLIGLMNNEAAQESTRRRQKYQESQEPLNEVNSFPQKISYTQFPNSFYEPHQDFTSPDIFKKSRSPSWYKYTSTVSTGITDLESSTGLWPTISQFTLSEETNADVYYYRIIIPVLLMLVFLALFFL

T1 sequence (O75116 1-552): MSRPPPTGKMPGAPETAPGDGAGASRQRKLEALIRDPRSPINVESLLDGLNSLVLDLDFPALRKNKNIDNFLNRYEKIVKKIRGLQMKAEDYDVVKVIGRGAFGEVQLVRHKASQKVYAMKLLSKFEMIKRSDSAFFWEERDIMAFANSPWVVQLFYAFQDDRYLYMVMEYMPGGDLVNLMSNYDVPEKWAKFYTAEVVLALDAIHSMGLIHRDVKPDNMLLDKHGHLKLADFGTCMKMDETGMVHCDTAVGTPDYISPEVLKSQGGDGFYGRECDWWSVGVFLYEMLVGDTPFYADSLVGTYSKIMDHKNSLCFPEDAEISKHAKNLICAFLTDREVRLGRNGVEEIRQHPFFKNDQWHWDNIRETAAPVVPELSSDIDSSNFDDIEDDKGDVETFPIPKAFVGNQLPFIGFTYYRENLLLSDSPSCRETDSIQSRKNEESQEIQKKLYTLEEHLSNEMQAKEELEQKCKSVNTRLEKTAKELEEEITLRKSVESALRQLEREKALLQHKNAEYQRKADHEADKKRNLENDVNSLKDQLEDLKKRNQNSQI
T2 sequence (Q13464 1-535): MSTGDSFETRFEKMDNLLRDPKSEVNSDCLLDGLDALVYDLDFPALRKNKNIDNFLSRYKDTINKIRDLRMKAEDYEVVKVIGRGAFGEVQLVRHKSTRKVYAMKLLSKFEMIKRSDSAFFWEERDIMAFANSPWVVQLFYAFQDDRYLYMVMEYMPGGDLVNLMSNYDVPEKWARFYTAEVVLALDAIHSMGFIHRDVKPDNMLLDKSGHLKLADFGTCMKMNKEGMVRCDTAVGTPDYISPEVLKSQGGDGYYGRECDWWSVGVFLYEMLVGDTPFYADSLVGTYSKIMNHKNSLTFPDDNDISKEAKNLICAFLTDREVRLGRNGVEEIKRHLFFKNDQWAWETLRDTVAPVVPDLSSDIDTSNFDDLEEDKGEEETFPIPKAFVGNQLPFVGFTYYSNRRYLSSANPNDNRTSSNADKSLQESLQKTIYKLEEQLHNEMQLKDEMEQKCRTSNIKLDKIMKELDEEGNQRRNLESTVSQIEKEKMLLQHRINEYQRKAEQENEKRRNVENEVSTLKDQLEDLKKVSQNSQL

## Cn1cc(C(=O)Nc2cccc(-c3nnc(Nc4ccc5[nH]ncc5c4Cl)s3)c2)cn1 [A11, N-(3-(5-((4-chloro-1H-indazol-5-yl)amino)-1,3,4-thiadiazol-2-yl)phenyl)-1-methyl-1H-pyrazole-4-carboxamide]
[1]
  IC50: 6.1 ± 1.4 nM
[2]
  IC50: 341 ± 38 nM

## CCCN[C@H]1CCc2nc(NC(=O)c3cccc([C@@H](C)NC(=O)c4ccc(OC)c(OC)c4)c3)sc2C1 [compound 31, 3,4-dimethoxy-N-((R)-1-(3 - (((S) - 6 - (propylamino) - 4,5,6, 7 tetrahydrobenzo [d]thiazol-2-yl)carbamoyl)phenyl)ethyl) benzamide]
[3]
  IC50: 2.9 ± 0.5 nM
[4]
  IC50: 4 ± 0.6 nM
[5]
  remaining binding at 0.1 µM: 9.3%
